Measured values as given in ChEMBL document CHEMBL4364293, “Design, Synthesis, and Structure-Activity Relationship of 7-Propanamide Benzoxaboroles as Potent Anticancer Agents” (J Med Chem, 2019).

Columns and labels:
[1] = system: HCT-116; assay: Antiproliferative activity against human HCT116 cells after 72 hrs by MTT assay; type: functional, cell-based; conditions: HCT-116, 72 h
[2] = system: WI-38; assay: Cytotoxicity against human WI38 cells after 72 hrs by MTT assay; type: cell-based; conditions: WI-38, 72 h
[3] = system: SK-OV-3; assay: Antiproliferative activity against human SKOV3 cells after 72 hrs by MTT assay; type: functional, cell-based; conditions: SK-OV-3, 72 h
[4] = system: MDA-MB-231; assay: Antiproliferative activity against human MDA-MB-231 cells after 72 hrs by MTT assay; type: functional, cell-based; conditions: MDA-MB-231, 72 h

How did the IC50 [1] turn out when `O=C(CCc1cccc2c1B(O)OC2)Nc1cccc(-c2ccc(Cl)cc2)c1` was run?
The IC50 was 0.38 µM.

What about the IC50 [2] of the same compound?
The IC50 was 9.8 µM.

And the IC50 [3]?
The IC50 was 0.22 µM.

What about the IC50 [4] of the same compound?
Its IC50 is 0.26 µM.

For `COc1cccc(-c2cccc(NC(=O)CCc3cccc4c3COB4O)c2)c1`, which IC50 [1] is on record?
Its IC50 is 46 µM.

What about the IC50 [2] of the same compound?
The IC50 was over 100 µM.

What about the IC50 [3] of the same compound?
The IC50 was 78 µM.

And the IC50 [4]?
The IC50 was 76 µM.

Which results are given for `CC(C)(C)OC(=O)NCc1ccc(NC(=O)CCc2cccc3c2B(O)OC3)cc1`?
IC50 [1]: 2.3 µM; IC50 [2]: 4.8 µM; IC50 [3]: 2 µM; IC50 [4]: 1.3 µM

Which IC50 [1] does the source give for `OB1OCc2ccccc21` [BENZOXABOROLE] here?
The IC50 was over 100 µM.

What about the IC50 [2] of the same compound?
The IC50 was 58 µM.

And the IC50 [3]?
The IC50 was over 100 µM.

What about the IC50 [4] of the same compound?
The IC50 was over 100 µM.

Which results are given for `OB1OCc2cc(F)ccc21` [TAVABOROLE]?
IC50 [1]: 65 µM; IC50 [2]: 32 µM; IC50 [3]: > 100 µM; IC50 [4]: > 100 µM

With `O=C(CCc1cccc2c1B(O)OC2)Nc1ccc([N+](=O)[O-])cc1` as the compound, how does the IC50 [1] read?
Its IC50 is over 100 µM.

And the IC50 [2]?
The IC50 was over 100 µM.

And the IC50 [3]?
Its IC50 is 83 µM.

What about the IC50 [4] of the same compound?
Its IC50 is 36 µM.

For `COc1cccc2c1C(=O)c1c(O)c3c(c(O)c1C2=O)C[C@@](O)(C(=O)CO)C[C@@H]3O[C@H]1C[C@H](N)[C@H](O)[C@H](C)O1` [DOXORUBICIN], which IC50 [1] is on record?
Its IC50 is 0.023 µM.

And the IC50 [2]?
The IC50 was 0.59 µM.

And the IC50 [3]?
Its IC50 is 0.032 µM.

What about the IC50 [4] of the same compound?
The IC50 was 0.0069 µM.

With `N#Cc1ccc(-c2cccc(NC(=O)CCc3cccc4c3B(O)OC4)c2)cc1` as the compound, how does the IC50 [1] read?
Its IC50 is 0.41 µM.

What about the IC50 [2] of the same compound?
The IC50 was 12 µM.

And the IC50 [3]?
Its IC50 is 0.34 µM.

What about the IC50 [4] of the same compound?
The IC50 was 0.38 µM.

With `CC(=O)c1ccc(-c2cccc(NC(=O)CCc3ccccc3)c2)cc1` as the compound, how does the IC50 [1] read?
Its IC50 is 4 µM.

And the IC50 [2]?
The IC50 was 13 µM.

And the IC50 [3]?
Its IC50 is 3.2 µM.

What about the IC50 [4] of the same compound?
Its IC50 is 2.7 µM.

`COc1cccc(-c2cccc(NC(=O)CCc3ccccc3)c2)c1` was tested. Which IC50 [1] did it give?
The IC50 was 40 µM.

And the IC50 [2]?
The IC50 was over 100 µM.

What about the IC50 [3] of the same compound?
The IC50 was 24 µM.

And the IC50 [4]?
The IC50 was 25 µM.

What does the source list for `CC(C)(C)c1ccc(NC(=O)CCc2cccc3c2B(O)OC3)cc1`?
IC50 [1]: 19 µM; IC50 [2]: 55 µM; IC50 [3]: 4.2 µM; IC50 [4]: 33 µM

What does the source list for `CC(=O)c1ccc(-c2cccc(NC(=O)CCc3cccc4c3C(O)OC4)c2)cc1` (configuration not stated)?
IC50 [1]: 18 µM; IC50 [2]: > 100 µM; IC50 [3]: 41 µM; IC50 [4]: 29 µM

Which results are given for `COc1cc(OC)cc(-c2cccc(NC(=O)CCc3ccc4c(c3)B(O)OC4)c2)c1`?
IC50 [1]: 3.7 µM; IC50 [2]: > 100 µM; IC50 [3]: 29 µM; IC50 [4]: 21 µM
